Assay: gradient 5% acetonitrile 3 min, to 50% in 2 min, to 85% in 15 min, held 3 min, 100 µL/min
Details: column: Zorbax Extend-C18 2.1 x 50 mm; eluents: water / acetonitrile, 0.1% formic acid
In short: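 Each retention time is based on an adduct peak selected computationally and verified by manual inspection. Measurements used HPLC–quadrupole time-of-flight mass spectrometry in positive and negative ionization mode on mixtures of ~100 pure standards. Chromatography ran on a Zorbax Extend-C18 column (2.1 × 50 mm, 1.8 μm) at 100 μL/min with water and acetonitrile, each containing 0.1% formic acid, and dead and dwell volumes of 40 μL and 900 μL.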

| Structure (SMILES) | RP-LC retention time [s] |
| --- | --- |
| O=C(CC1CCN(C(=O)c2ccc3oc(C4CC4)nc3c2)CC1)N1CCN(c2ccccn2)CC1 | 602 |
| Cc1sc(NC(=O)C(C)C)nc1-c1ccc2c(c1)NC(=O)C(C)O2 (stereo not drawn) | 831 |
| COC(=O)C(C)NC(=O)NCc1cccn1Cc1cccc(F)c1 (stereo not drawn) | 792 |
| COCCCNC(=O)c1nc(Nc2ccccc2)c2ccccc2n1 | 664 |
| Cc1nc(-c2cc(S(=O)(=O)Nc3cccc(Cl)c3F)c(C)s2)cs1 | 1030 |
| Cc1cccc(N2CCN(C(=O)c3cn(-c4ccc(NC(=O)C5CC5)cn4)cn3)CC2)c1C | 901 |
| CNC(=O)[C@@H]1C[C@H](Oc2ccccc2)CN1C(=O)c1n[nH]c2ccccc12 | 706 |
| O=C(c1ccc2ncnc(N3CCCC3)c2c1)N1CCN(c2ccccc2F)CC1 | 659 |
| Cc1nc(-c2ccccc2)sc1C(=O)N1CCC(C(C)C(=O)N2CCOCC2)CC1 (stereo not drawn) | 728 |
| COc1ccccc1OC(C)C(=O)Nc1ccnn1Cc1cccs1 (stereo not drawn) | 842 |
| CC(CCc1ccccc1)NC(=O)c1cc2sc(Cl)cc2n1C (stereo not drawn) | 1170 |
| CCC(CN(C)Cc1ccccc1)NS(=O)(=O)c1ccc2[nH]c(=O)ccc2c1 (stereo not drawn) | 600 |
| COC(=O)C[C@@](O)(CCC(C)(C)O)C(=O)O[C@@H]1C(OC)=C[C@]23CCCN2CCc2cc4c(cc2[C@@H]13)OCO4 | 612 |
| COC(=O)CNC(=O)NC(Cc1ccc(F)cc1)Cc1ccc2c(c1)OCO2 (stereo not drawn) | 834 |
| O=c1ccc(S(=O)(=O)N2CCCCC2)cn1Cc1ccccc1 | 851 |
| Cc1onc(-c2ccccc2Cl)c1C(=O)NC1CC1 | 746 |
| O=C([C@@H]1C[C@H](F)CN1S(=O)(=O)c1ccccc1)N1CCOCC1 | 643 |
| O=C(CN1CCN(Cc2ccccc2F)C1=O)NCc1ccc(F)cc1 | 808 |
| COCCNC(=O)N1c2ccccc2NC2=C(C(=O)CC(C)(C)C2)C1c1ccc(F)cc1 (stereo not drawn) | 749 |
| Cc1cc(NC(=O)CSc2cc(N3CCCC3)ncn2)ccc1Br | 842 |
| COc1ccc(-c2[nH]ncc2CN2CC(F)(F)C[C@H]2CN2CCOCC2)cc1OC | 594 |
| O=C(Nc1ccc(F)cc1F)C1CCCN(S(=O)(=O)Cc2ccccc2)C1 (stereo not drawn) | 933 |
| O=C(NCc1cc(F)ccc1F)C1CCN(c2cncnc2N2CCOCC2)CC1 | 619 |
| COc1cc(NC(=O)Nc2ccc3nc(N4CCN(C)CC4)cc(C)c3c2)cc(OC)c1OC | 574 |
| COc1ccc(NC(=O)c2cnc(N3CCN(C(C)C)CC3)nc2N)cc1 | 593 |
| Cc1ccc(-n2nc(N3CCN(C(=O)c4ccc(Br)o4)CC3)ccc2=O)cc1 | 817 |

Results, then the molecule that gave them:

| RP-LC retention time [s] | Structure (SMILES) |
| --- | --- |
| 951 | Cc1ccc(S(=O)(=O)N2C(=O)CCC2C(=O)NCc2nc(-c3ccc(Cl)cc3)no2)cc1 (stereo not drawn) |
| 832 | O=C(NC1CC1)c1ccc(OCC2CCCN2C(=O)c2ccccc2C(F)(F)F)cc1 (stereo not drawn) |
| 730 | C[C@H]1CN(C(=O)NCc2ccccc2)C[C@@H]1c1nc(-c2cccnc2)no1 |
| 1100 | COc1ccccc1-c1noc(Cn2c(=O)n(Cc3ccc(C)cc3)c(=O)c3sccc32)n1 |
| 806 | Cc1ccc(C(=O)N2CCC(n3c(-c4ccco4)nc4cccnc43)C2)cc1C (stereo not drawn) |
| 662 | Cc1ccccc1NC(=O)Nc1ccc2nnc(C)n2c1 |
| 987 | Cc1cc(-c2nnc(-c3ccc(F)cc3)o2)c(C)n1CC(=O)Nc1cccc(F)c1 |
| 720 | Cc1nc(-c2ccc(F)cc2)nc2c1CCC(=O)N2Cc1ccco1 |
| 671 | c1cc(CN2CC(Oc3ccc(-c4noc(C5CCOCC5)n4)cc3)C2)cs1 |
| 1120 | CCCn1nnc2cc(-c3noc(COc4ccc(Cl)cc4)n3)ccc21 |
| 824 | CCOc1ccc(NC(=O)Cn2c(=O)c(CCC(=O)NCC(C)C)nc3ccccc32)cc1 |
| 1010 | CN1C(=O)COc2ccc(-c3csc(NC(=O)c4ccc(Cl)cc4)n3)cc21 |
| 692 | COCCCNC(=O)Cn1c(=O)n(-c2ccc(C)cc2)c2ncccc21 |
| 934 | COc1ccc(-c2nnc(N3CCC(C(=O)NC(C)c4ccc(C)cc4C)CC3)o2)cc1 (stereo not drawn) |
| 933 | CCOc1ccccc1NC(=O)Cn1c(=O)n(-c2ccc(F)cc2)c(=O)c2c1cc(C)n2C |
| 858 | CCn1cc(C2=CCN(C(=O)NCc3ccc(OC)cc3)CC2)c2cccnc21 |
| 989 | COc1ccc(C2(C(=O)Nc3cc(-c4nnc(C)o4)sc3C)CC2)cc1 |

Reference: the METLIN SMRT retention time set (Domingo-Almenara et al. 2019)
